Experimental data from patent publication US9120793B2, “Triazolo-pyridine compound” (Eli Lilly and Company, priority 2013, dated 2015).

Assays:
human GPR-40 = target: T1, human GPR-40 (Homo sapiens, UniProt O14842); experiment: Calcium Flux Primary Assay; type: cell-based
T1 construct: expressed in transfected cells; host or cells: HEK293
Description: HEK293 cells over expressing the human GPR-40 cDNA maintained in Dulbecco's modified Eagle's medium with F12 medium in 3:1 ratio supplemented with 10% FBS and 800 μg/ml geneticin at 37° C. and 5% CO2 are employed for the study. Agonist assays are performed using a Calcium 4 Dye assay kit (Molecular Devices) in the presence or absence of 0.1% fatty acid free BSA in the assay buffer (1×HBSS (Hank's Balanced Salt Solution) & 20 mM HEPES (4-(2-hydroxyethyl)-1-piperazineethanesulfonic acid). Receptor activation is measured as an increase in intracellular calcium using the Fluorometric Imaging Plate Reader (FLIPR). Maximum change in fluorescence over the base line is used to determine the agonist response. The EC50 value of the compound is calculated using Excel Fit software (version 4; IDBS) by plotting concentration vs relative fluorescence units (RFUs). […] (Mean±SEM; SEM=standard error of the mean.)

PPARγ = target: T2, PPARγ (Homo sapiens, UniProt P37231); experiment: PPARγ reporter (CTF)/functional assay in CV1 cells; type: cell-based
T2 construct: expressed in transfected cells; host or cells: CV1 (African green monkey kidney)
T2 sequence (P37231 1-505): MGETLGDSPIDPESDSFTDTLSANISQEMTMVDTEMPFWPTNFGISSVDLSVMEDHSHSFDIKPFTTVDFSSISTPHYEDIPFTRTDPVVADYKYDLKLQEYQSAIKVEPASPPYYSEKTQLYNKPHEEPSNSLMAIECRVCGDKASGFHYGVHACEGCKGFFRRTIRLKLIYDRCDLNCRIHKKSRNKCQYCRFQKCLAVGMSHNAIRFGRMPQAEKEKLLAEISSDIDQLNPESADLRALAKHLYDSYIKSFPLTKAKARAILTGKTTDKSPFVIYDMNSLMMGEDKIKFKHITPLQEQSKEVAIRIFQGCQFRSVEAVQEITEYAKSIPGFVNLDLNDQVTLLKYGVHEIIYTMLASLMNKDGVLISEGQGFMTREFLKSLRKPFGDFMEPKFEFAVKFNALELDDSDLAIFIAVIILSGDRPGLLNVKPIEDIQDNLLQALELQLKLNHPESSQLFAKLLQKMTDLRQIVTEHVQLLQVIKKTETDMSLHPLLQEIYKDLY
T2 sequence (P19793 1-462 partner): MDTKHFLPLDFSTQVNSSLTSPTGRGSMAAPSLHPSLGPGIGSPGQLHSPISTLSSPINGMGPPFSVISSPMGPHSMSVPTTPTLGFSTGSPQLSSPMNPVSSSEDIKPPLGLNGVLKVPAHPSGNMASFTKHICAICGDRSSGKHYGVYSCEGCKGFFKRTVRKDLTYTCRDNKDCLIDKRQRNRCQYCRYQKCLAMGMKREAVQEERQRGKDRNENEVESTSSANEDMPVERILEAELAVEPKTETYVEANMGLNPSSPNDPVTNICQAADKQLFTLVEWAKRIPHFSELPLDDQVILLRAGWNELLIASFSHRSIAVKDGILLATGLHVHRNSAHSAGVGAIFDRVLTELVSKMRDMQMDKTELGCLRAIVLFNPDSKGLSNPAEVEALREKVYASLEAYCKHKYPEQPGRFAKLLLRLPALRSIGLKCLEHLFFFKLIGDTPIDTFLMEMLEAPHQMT
Source text: Because GPR-40 is known to be activated by ligands to PPARγ, exemplified compounds are examined in PPARα, PPARδ, and PPARγ reporter assays to determine the selectivity of an exemplified compound. CV1 cells, which are derived from the renal tissue of an African green monkey, are transfected with various receptor and reporter plasmids using Fugene. For the PPARα and PPARδ assays, a reporter plasmid containing five tandem copies of the yeast transcription protein Gal4 response element, cloned upstream of a firefly luciferase gene driven by the major late promoter of adenovirus, is transfected together with a Simian Virus 40 (SV40) driven plasmid constitutively expressing a hybrid protein containing the Gal4 DNA binding domain (DBD), and either the PPARα or PPARδ ligand binding domain. For the PPARγ assay, plasmids encoding PPARγ and RXRα, both driven by a cytomegalovirus (CMV) promoter are transfected together with a plasmid containing luciferase reporter cDNA driven by the TK promoter and a receptor response element (2×PPRE). […] After 24 hours incubation with compound, cells are lysed and luciferase activity is determined as a measure of receptor activation by luminescence. […] The maximum percent stimulation is determined versus maximum stimulation obtained with 10 μM of an appropriate PPAR agonist reference compound. […]

human GPR-40 (hGPR-40) = target: T3, human GPR-40 (hGPR-40) (Homo sapiens, UniProt O14842); experiment: Radioligand competition binding, in vitro binding affinity to GPR-40; conditions: 5 nM [3H] TAK-875; membranes of HEK293 cells overexpressing hGPR-40; Cheng-Prusoff
T3 construct: expressed in transfected cells; host or cells: HEK293 (membranes)
Source text: Competition curves are plotted as the percent specific inhibition versus concentration of compound and analyzed using a four parameter nonlinear regression fit with variable slope. […] See Cheng, Y. and Prusoff, W. H. (1973) “Relationship between the inhibition constant (Ki) and the concentration of inhibitor which causes 50 per cent inhibition (IC50) of an enzymatic reaction,” Biochem Pharmacol 22(23):3099-3108. […] (Mean±SEM; SEM=standard error of the mean.).

T1 sequence (O14842 whole entry): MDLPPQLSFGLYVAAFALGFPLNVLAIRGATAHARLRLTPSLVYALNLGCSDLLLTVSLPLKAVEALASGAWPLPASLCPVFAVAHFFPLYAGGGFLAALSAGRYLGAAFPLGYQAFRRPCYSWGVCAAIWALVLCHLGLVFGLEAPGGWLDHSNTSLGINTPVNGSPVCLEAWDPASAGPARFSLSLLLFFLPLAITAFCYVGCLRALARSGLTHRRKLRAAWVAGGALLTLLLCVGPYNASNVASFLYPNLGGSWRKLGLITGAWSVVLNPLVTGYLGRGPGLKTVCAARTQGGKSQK
T3 sequence (O14842 whole entry): as above

- EC50 (human GPR-40; HEK293 cells over expressing human GPR-40, intracellular calcium, FLIPR): 119 nM
- efficacy (human GPR-40; maximal response compared to natural ligand linoleic acid): 76%
- EC50 (PPARγ; CV1 cells, luciferase reporter, 24 hours): 2600 nM
- Emax (PPARγ; CV-1, versus 10 μM PPAR agonist reference compound, <20% considered negative, read-out: % efficacy in PPARγ CTF assay): 17%
- Ki (human GPR-40 (hGPR-40)): 14.9 nM
Structure (SMILES): CC#C[C@@H](CC(=O)O)c1ccc(OCc2ccc3nc(-c4c(C)cccc4C)nn3c2)cc1 [Example 1, (3S)-3-[4-[[2-(2,6-Dimethylphenyl)-[1,2,4]triazolo[1,5-a]pyridin-6-yl]methoxy]phenyl]hex-4-ynoic acid]
